How the values were obtained:
[1] = tested on: calcein loaded phospholipid vesicles (PC, PG, PE-PG mix, E. coli total, E. coli polar); experiment: Synthetic phospholipid vesicle lysis (calcein leakage) assay; settings: SSA 1.5 mM, in words; for time dependence of vesicle lysis: 15 min vs 30 s, E. coli-based vesicles
Experimental: Here, samples of phospholipid vesicles containing the fluorescent dye calcein were prepared. At internal vesicle concentrations, this dye undergoes self-quenching. […] The increase in fluorescence output is proportional to the % of vesicle lysis observed upon the addition of SSAs 1–14, when calibrated against a solution of vesicles know to have undergone 100% lysis, see Fig. 5.
Fig. 5 The average (n = 3) percentage lysis (%) of vesicles (30 μM) composed of five different lipid compositions (Table 2), with an internal calcein concentration of 70 mM at 298 K. The % vesicle lysis was calculated through observation of increasing fluorescence emission (λem = 515 nm), following the addition of SSAs […] (1.5 mM) in a H2O/EtOH 95 : 5 solution after: (a) 30 s and; (b) 15 min. Triton X-100 (1%) was used as a positive control for 100% vesicle lysis. Data normalised to the addition of a H2O/EtOH 95 : 5 solution. Red = PC, yellow = PG, green = PE-PG mix, blue = E. coli total, pink = E. coli polar. Error = standard error.
Section 2: General Methods […]
Preparation of vesicles: All lipids were purchased as powder stocks from Avanti Polar Lipids. Lipid vesicles were prepared according to standard procedures.1 Each phospholipid was dissolved in chloroform (~ 10 mL) and the solvent was removed under reduced pressure. The thin film of dried lipid was further dried in vacuo for at least 2 hours. Lipid films were resuspended in the desired buffer and subjected to 9 freeze-thaw cycles in liquid nitrogen and extruded 20 times through a 200 nm […]
Preparation of calcein loaded vesicles: Lipid films were resuspended in buffer A (70 mM calcein, 10 mM TRIS pH 8.5, 0.5 mM EDTA, 110 mM NaCl, pH adjusted to 6-7) and subjected to 9 freeze-thaw cycles in liquid nitrogen and extruded 20 times through a 200 nm polycarbonate membrane. The suspension was run down a size exclusion column packed with sephadex G-50 using buffer B (10 mM TRIS pH 8.5, 0.5 mM EDTA, 110 mM NaCl). The hydrodynamic dimeter of the lipids was monitored using an Anton Paar LitesizerTM 500 to ensure the separation of free and entrapped calcein.
Phospholipid concentration was adjusted to 30 µM for vesicle leakage experiments.
Vesicle leakage assay: Black bottom 96-well plates were prepared with the appropriate lipid solution (100 µL, 30 µM) and desired SSA solution (100 µL) prepared in H2O/EtOH 95: 5. A solution of 1 % Triton X-100 (16) was used for a 100 % lysis control and a H2O/EtOH 95: 5 solution was used as a 0 % lysis control. Fluorescent measurements were taken at 25 °C using an excitation value of 495 nm and an optimised gain of 983. Data were acquired in endpoint mode. All experiments were repeated in triplicate to ensure experimental reproducibility. […]
Data

[2] = tested on: calcein loaded phospholipid vesicles (PC, PG, PE-PG mix, E. coli total, E. coli polar); experiment: as above; settings: SSA titration; concentrations ≤0.5 mM; after 15 min; in words

SMILES	time dependence of vesicle lysis [1]	vesicle lysis PG over PC [2]	vesicle lysis activity ([1]; thirty seconds after SSA addition, five vesicle types)
Cc1ccc2nc(-c3ccc(NC(=O)NCS(=O)(=O)O)cc3)sc2c1 [SSA 6]	time dependent enhancement of vesicle lysis	enhanced levels of vesicle lysis against PG	–
O=C(NCS(=O)(=O)O)Nc1ccccc1-c1nc2ccccc2s1 [SSA 5]	–	enhanced levels of vesicle lysis against PG	–
O=C(NCS(=O)(=O)O)Nc1ccc(-c2nc3ccccc3s2)cc1 [SSA 8]	time dependent enhancement of vesicle lysis	enhanced levels of vesicle lysis against PG	–
Cc1ccc2nc(-c3ccc(NC(=O)NCCC(=O)O)cc3)sc2c1 [SSA 9]	time dependent enhancement of vesicle lysis	–	–
Cc1ccc2nc(-c3ccc(NC(=O)NCCCS(=O)(=O)O)cc3)sc2c1 [SSA 10]	time dependent enhancement of vesicle lysis	–	–
Cc1ccc2nc(-c3ccc(NC(=O)NCC(=O)O)cc3)sc2c1 [SSA 11]	–	–	general surfactant type properties, similar to that of Triton
